From publication PMC9101684, “Hempseed (Cannabis sativa) Peptide H3 ([sequence]) Exerts Cholesterol-Lowering Effects in Human Hepatic Cell Line” (Nutrients, 2022)
Read-outs that look alike come from different tables or passages of the source.

Key:
HMGCoAR [1] = test: Western blot, HMGCoAR protein in HepG2 cells; format: cell-based, human; settings: pravastatin 1.0 µM, 24 h, versus control; p < 0.01; mean ± S.D., three independent experiments in duplicate
Procedure: (§1) Immunoblotting experiments were performed using an optimized protocol. Details are available in the Supplementary Materials. […]
(§2) 2.7. Western Blot Analysis
(§3) Immunoblotting experiments were performed using optimized protocol […]
(§4) µM of H3 for 24 h. After each treatment, the supernatants were collected and stored at -20 °C; cells were scraped in 40 µL ice-cold lysis buffer (RIPA buffer + inhibitor cocktail + 1:100 PMSF + 1:100 Na-orthovanadate + 1:1000 β-mercaptoethanol) and transferred in ice-cold microcentrifuge tubes. After centrifugation at 13,300 g for 15 min at 4 °C, the supernatants were recovered and transferred into new ice-cold tubes. […]
(§5) Cocktail) on ice for 20 min and then centrifuged 12000 rpm for 10 min at 4°C and the supernatant was collected (nucleus isolate). Total proteins were quantified […]
(§6) Sodium Dodecyl Sulfate-Polyacrylamide (SDS-PAGE) gel at 130 V for 45 min.
(§7) Subsequently, the gel was pre-equilibrated in H2O for 5 min at room temperature (RT) and transferred to a nitrocellulose membrane (Mini nitrocellulose Transfer Packs,) using a Trans-Blot Turbo at 1.3 A, 25 V for 7 min. Target proteins, on milk or BSA blocked membrane, were detected by primary antibodies as follows: anti-SREBP-2, anti-LDLR, anti-HMGCoAR, anti-PCSK9, anti HNF1-α, anti-p-HMGCoAR, anti-p-AMPK and anti-β-actin. […]

LDLR [2] = test: Western blot, total LDLR in HepG2 cells; format: cell-based, human; settings: pravastatin 1.0 µM, 24 h, versus control; p < 0.001; mean ± S.D., three independent experiments in duplicate
Procedure: as §1, §2, §3, §4, §5, §6, §7

p-HMGCoAR = test: Western blot, p-HMGCoAR (serine 872) in HepG2 cells; format: cell-based, human; settings: pravastatin 1.0 µM, 24 h, versus control; p < 0.01; mean ± S.D., three independent experiments in duplicate
Procedure: as §1, §2, §3, §4, §5, §6, §7

PCSK9 [3] = test: ELISA, mature PCSK9 secreted by HepG2 cells; format: cell-based, human
HNF1-α = test: Western blot, HNF1-α in HepG2 cells; format: cell-based, human; settings: pravastatin 1.0 µM, 24 h, versus control; p < 0.0001; mean ± S.D., three experiments in duplicate
Procedure: as §1, §2, §3, §4, §5, §6, §7

SREBP-2 = test: Western blot, mature and precursor SREBP-2 in HepG2 cells; format: cell-based, human; settings: pravastatin 1.0 µM, 24 h, versus untreated
Procedure: as §1, §2, §3
µM of H3 for 24 h. After each treatment, the supernatants were collected and stored at -20 °C; cells were scraped in 40 µL ice-cold lysis buffer (RIPA buffer + inhibitor cocktail + 1:100 PMSF + 1:100 Na-orthovanadate + 1:1000 β-mercaptoethanol) and transferred in ice-cold microcentrifuge tubes. After centrifugation at 13,300 g for 15 min at 4 °C, the supernatants were recovered and transferred into new ice-cold tubes. For the mature SREBP-2 nuclear […]
for at 37 °C under 5% CO2 atmosphere for 24h. Therefore, cells were collected with PBS ice-cold and centrifuged 1500 rmp for 5 min at 4°C. The pellet was incubated with 20 µL of Nuclei Isolation Buffer A (10 mM HEPES pH 7.9, 1.5 mM MgCl2, 10 mM KCl, 0.2 mM EDTA, 0.1% β-mercaptoethanol, 0.5 mM PMSF, 0.1 % NP-40, one cOmplete™ Mini, EDTA-free Protease Inhibitor Cocktail) on ice for 10 min and then centrifuged 12000 rpm for 10 min at 4°C. Subsequently, the pellet was incubated with 20 µL of Nuclei Isolation Buffer B (20 mM HEPES […]
0.5 mM PMSF, 0.42 M NaCl, one cOmplete™ Mini, EDTA-free Protease Inhibitor Cocktail) on ice for 20 min and then centrifuged 12000 rpm for 10 min at 4°C and the supernatant was collected (nucleus isolate). Total proteins were quantified […]
as §7, with “anti-β-actin. Secondary antibodies conjugated with HRP and a chemiluminescent reagent were used to visualize target proteins and their signal was quantified using the Image Lab Software (Biorad, Hercules,” for “anti-β-actin.”

AMPK [4] = test: Western blot, p-AMPK (threonine 172) in HepG2 cells; format: cell-based, human; settings: pravastatin 1.0 µM, 24 h, versus control; p < 0.05; mean ± S.D., three independent experiments in duplicate
Procedure: as §1, §2, §3, §4, §5, §6, §7

PCSK9 [5] = test: Western blot, intracellular PCSK9 in HepG2 cells; format: cell-based, human; settings: pravastatin 1.0 µM, 24 h, versus control; p < 0.0001; mean ± S.D., three experiments in duplicate
Procedure: as §1, §2, §3, §4, §5, §6, §7

HepG2 cells = test: Fluorescent LDL uptake by HepG2 cells; format: cell-based, human; settings: pravastatin 1.0 µM, 24 h, then LDL-DyLight 550 for 2 h at 37 °C, fluorescence, versus control; p < 0.0001; mean ± S.D., three experiments in triplicate
Procedure: treatment, the culture medium was replaced with 50 µL/well LDL-DyLight™ 550 working solution (Cayman Chemical Company, Ann Arbor, MI, USA) prepared in DMEM without FBS and antibiotics. The cells were additionally incubated for 2 h at 37 °C and then the culture medium was aspirated and replaced with PBS (100 µL/well). The degree of LDL uptake was measured using the Synergy H1 fluorescent plate reader (Winooski, VT, USA) (excitation and […]

HMGCoAR [6] = tested on: HMGCoAR; parameters: method as in 5 sources, ref 24 = [24]; PMID 2513368; doi:10.1016/S0022-2275(20)38255-9; 24. Mosley S.T. Kalinowski S.S. Schafer B.L. Tanaka R.D. Tissue-selective acute effects of inhibitors of 3-hydroxy-3-methylglutaryl coenzyme A reductase on cholesterol biosynthesis in lens J. Lipid Re ||| ref 32 = [32]; PMID 25690031; doi:10.3390/ijms16024150; 32. Soares R.A.M. Mendonça S. De Castro L.Í.A. Menezes A.C.C.C.C. Arêas J.A.G. Major Peptides from Amaranth (Amaranthus cruentus) Protein Inhibit HMG-CoA Reductase Activity Int. J. Mol. Sci. 2015 16 4 ||| ref 33 = [33]; doi:10.1016/j.jff.2015.02.021; 33. Lammi C. Zanoni C. Arnoldi A. […], […], and LPYP, three peptides from soy glycinin, modulate cholesterol metabolism in HepG2 cells through the activation of the LDLR-SREBP2 pathway J. Fu ||| ref 34 = [34]; PMID 26310992; doi:10.1021/acs.jafc.5b03497; 34. Lammi C. Zanoni C. Arnoldi A. Vistoli G. Two Peptides from Soy β-Conglycinin Induce a Hypocholesterolemic Effect in HepG2 Cells by a Statin-Like Mechanism: Comparative in Vitro and in Silico Model ||| ref 11, 12 = [11]; PMID 29096438; doi:10.1021/acs.jafc.7b03590; 11. Aiello G. Lammi C. Boschin G. Zanoni C. Arnoldi A. Exploration of Potentially Bioactive Peptides Generated from the Enzymatic Hydrolysis of Hempseed Proteins J. Agric. Food Chem. 2017 65 10174 101 || [12]; PMID 28931275; doi:10.1021/acs.jafc.7b02742; 12. Zanoni C. Aiello G. Arnoldi A. Lammi C. Hempseed Peptides Exert Hypocholesterolemic Effects with a Statin-Like Mechanism J. Agric. Food Chem. 2017 65 8829 8838 10.1021/acs.jafc.7b02742 28931275; settings: cited from earlier work
Excerpt: Th ... || CVD is a multifactorial pathology in which oxidative and inflammatory status as well as hypercholesterolemia are among the main risk factors.

LDLR [7] = test: In-Cell Western (ICW), LDLR localized on cellular membranes of HepG2 cells; format: cell-based, human; settings: pravastatin 1.0 µM, 24 h, versus control, p < 0.0001, mean ± S.D., three experiments in triplicate
Procedure: For the experiments, a total of 3 × 10^4 HepG2 cells/well were seeded in 96-well plates. The following day, the cells were washed with PBS and then starved overnight (O/N) in DMEM without FBS nor antibiotics.
HMGCoAR were provided in the HMGCoAR Assay Kit (Sigma Aldrich SRL, Milan, Italy). The experiments were carried out following the manufacturer instructions at 37 °C. In particular, each reaction (200 µL) was prepared adding the reagents in the following order: 1 X assay buffer, a 10–1000 µM doses of H3 or vehicle (C), the NADPH (4 µL), the substrate solution (12 µL), and finally the HMGCoAR (catalytic domain) (2 µL). Subsequently, the samples were mixed and the absorbance at 340 nm read by the microplate reader Synergy H1
In-Cell Western (ICW) Assay
For the experiments, a total of 3 X 10 4 HepG2 cells/well were seeded in 96-well plates. The following day, cells were washed with PBS and then starved overnight (O/N) in DMEM without FBS and antibiotics.
Subsequently, they were fixed in 4% paraformaldehyde for 20 min at room temperature (RT). […] The reaction was stopped with 2 M H2SO4 and then the absorbance at 450 nm was measured using the microplate reader Synergy H1 (Winooski, VT, USA). After the read, cells were stained by adding 1 X Janus Green stain, incubating for 5 min at RT. […]

AMPK [8] = settings: cited from earlier work
Excerpt: Furthermore, it is also known that statins are able to activate AMPK [44] with the consequence of a synergistic inhibition of HMGCoAR activity, its direct target. In agreement with these evidences, our results provide a clear indication that, similarly to statins, peptide H3 increases the phosphorylation level of AMPK at the Thr172 residue of the catalytic subunit, which in turn produces an inhibition of ...

[9] = from soybean glycinin hydrolysis with pepsin, read-out: IC50, HMGCoAR (soybean glycinin peptides)
[10] = LTFPGSAED from lupin protein, VGVL from amaranth protein, hydrolysis with pepsin, read-out: IC50, HMGCoAR (literature peptides)
[11] = from soybean β-conglycinin, read-out: IC50, HMGCoAR (soybean β-conglycinin peptides)

**Q.** With CC[C@H](C)C(=O)O[C@H]1C[C@H](O)C=C2C=C[C@H](C)[C@H](CC[C@@H](O)C[C@@H](O)CC(=O)O)[C@H]21 [pravastatin] as the compound, how does the HMGCoAR protein level (HMGCoAR [1]) read?
**A.** Its HMGCoAR protein level is 129.3 ± 9.33%.

**Q.** And the “total LDLR protein level” value (LDLR [2])?
**A.** The value was 140.8 ± 15.35%.

**Q.** And the “phosphorylation level of HMGCoAR (serine 872)” value (p-HMGCoAR)?
**A.** The value was 143.5 ± 4.64%.

**Q.** And the “release of PCSK9 (increase up to)” value (PCSK9 [3])?
**A.** Its value is 119.6 ± 1.18%.

**Q.** And the “HNF1-α level (activation up to)” value (HNF1-α)?
**A.** The value was 116.9 ± 3.21%.

**Q.** And the “precursor SREBP-2 (125 KDa) protein level” value (SREBP-2; cytoplasmic fraction, p < 0.05, Figure S2)?
**A.** Its value is 140.8 ± 9.0%.

**Q.** What about the “mature nuclear SREBP-2 (65 KDa) protein level” value (SREBP-2; nuclear fraction, p < 0.0001, mean ± S.D., three independent experiments in duplicate) of the same compound?
**A.** The value was 152.3 ± 8.2%.

**Q.** What about the “total mature SREBP-2 (65 KDa) protein level” value (SREBP-2; total lysate, p < 0.001, mean ± S.D., three independent experiments in duplicate) of the same compound?
**A.** Its value is 134.9 ± 17.3%.

**Q.** And the “AMPK phosphorylation (threonine 172)” value (AMPK [4])?
**A.** The value was 122.7 ± 5.23%.

**Q.** And the “PCSK9 protein level (increase up to)” value (PCSK9 [5])?
**A.** Its value is 118.8 ± 6.11%.

**Q.** And the LDL uptake (HepG2 cells)?
**A.** The LDL uptake was 226.9 ± 11.05%.

**Q.** And the IC50 (HMGCoAR [6]; read-out: IC50, HMGCoAR (literature value for pravastatin))?
**A.** Its IC50 is 0.47 µM.

**Q.** What about the “LDLR protein level on cellular membrane” value (LDLR [7]) of the same compound?
**A.** The value was 127.3 ± 14.31%.

**Q.** With “IAVPGEVA [peptide from soybean glycinin hydrolysis with pepsin]” as the compound, how does the “mechanism of HMGCoAR inhibition (AMPK phosphorylation)” value (“mechanism of HMGCoAR inhibition” for short) (AMPK [8]; soybean peptides) read?
**A.** Its value is “share the same mechanism of HMGCoAR inhibition”.

**Q.** And the IC50 (HMGCoAR [6]; [9])?
**A.** Its IC50 is 222 µM.

**Q.** Which results are given for “IAVPTGVA [peptide from soybean glycinin hydrolysis with pepsin]”?
**A.** mechanism of HMGCoAR inhibition (AMPK phosphorylation) (AMPK [8]; soybean peptides): share the same mechanism of HMGCoAR inhibition; IC50 (HMGCoAR [6]; [9]): 247 µM

**Q.** With “LILPKHSDAD [peptide from lupin protein hydrolysis with pepsin]” as the compound, how does the “mechanism of HMGCoAR inhibition” value (AMPK [8]; lupin peptides) read?
**A.** The value was “share the same mechanism of HMGCoAR inhibition”.

**Q.** For “LPYP [peptide from soybean glycinin hydrolysis with pepsin]”, which “mechanism of HMGCoAR inhibition” value (AMPK [8]; soybean peptides) is on record?
**A.** Its value is “share the same mechanism of HMGCoAR inhibition”.

**Q.** What about the IC50 (HMGCoAR [6]; [9]) of the same compound?
**A.** The IC50 was 300 µM.

**Q.** With “LTFPGSAED [peptide from lupin protein hydrolysis with pepsin]” as the compound, how does the “mechanism of HMGCoAR inhibition” value (AMPK [8]; lupin peptides) read?
**A.** The value was “share the same mechanism of HMGCoAR inhibition”.

**Q.** What about the IC50 (HMGCoAR [6]; [10]) of the same compound?
**A.** Its IC50 is 68.4 µM.

**Q.** Which IC50 (HMGCoAR [6]; [10]) does the source give for “VGVL [peptide from amaranth protein hydrolysis with pepsin]” here?
**A.** Its IC50 is 50 µM.

**Q.** Which IC50 (HMGCoAR [6]; [11]) does the source give for “YVVNPDNDEN [peptide from soybean β-conglycinin]” here?
**A.** The IC50 was 150 µM.

**Q.** With “YVVNPDNNEN [peptide from soybean β-conglycinin]” as the compound, how does the IC50 (HMGCoAR [6]; [11]) read?
**A.** Its IC50 is 200 µM.
